We go through three compounds from patent publication US10271540B2, “Medical fluid, a method of treatment and use of the fluid” (XVIVO PERFUSION AB, priority 2010, dated 2019).

The conditions of series [1]: circulating in blood, metabolized by the liver; cited from earlier work.
The subject of series [2] is alpha-1. Put plainly: potency of alpha-1-agonist relative to noradrenaline. An excerpt:
For example, phenylephrine is an alpha-1-agonist and may replace noradrenaline.

`NC[C@H](O)c1ccc(O)c(O)c1` [noradrenaline]: the half-life entry in series [1] was “approximately a few minutes”. As to `CNCC(O)c1ccc(O)c(O)c1` (stereo not drawn) [adrenaline], the half-life result in series [1] is given as “approximately a few minutes”. For `CNC[C@H](O)c1cccc(O)c1` [phenylephrine], the “times less potent than noradrenaline” value in series [2] was “about 5 times”.
